From patent publication US20060002911A1, “Association between a ppar ligand and an antioxidant agent and use thereof for treating obesity” (priority 2002, published 2006)

Conditions: ob/ob mice, intraperitoneal route once a day for 14 days
Description: Male C57 Black 6 ob/ob mice from 8 to 12 weeks old were used. […] After being weighed, the mice were treated with rosiglitazone (antidiabetic agent) on its own or in association with coenzyme Q10. […] In addition, the solution was pre-heated before injection. The mice were weighed every day and the weight obtained after 14 days of treatment was recorded.

CN(CCOc1ccc(CC2SC(=O)NC2=O)cc1)c1ccccn1 (centres unmarked) [rosiglitazone]
increase in the weight of the mice: greater than or equal to 5 grams
increase in weight relative to initial weight (more than initial weight): about 10%
